# Assays:
# [1] = system: rabbit serum obtained by immunizing a rabbit with the SARS-CoV strain Frankfurt 1; format: binding; parameters: Binding of a rabbit serum to linear peptides / Binding of a rabbit serum to looped peptides / Rabbit serum linear peptides / Rabbit serum looped peptides / Binding of a rabbit serum to linear peptides of protein N of SARS-CoV Urbani (Rabbit serum linear peptides) / Binding of a rabbit serum to looped/cyclic peptides of protein N of SARS-CoV Urbani (Rabbit serum looped peptides): unit not given here
# [2] = system: recombinant human anti-SARS-CoV antibody 03-018; format: binding; parameters: Binding of antibody 03-018 to linear peptides of the N protein of SARS-CoV Urbani / Binding of antibody 03-018 to looped/cyclic peptides of the N protein of SARS-CoV Urbani: unit not given here
# [3] = system: control sera (pooled serum of ten healthy LUMC hospital workers; commercial negative donor pooled serum from the Dutch bloodbank); format: binding, human; parameters: Binding of Control serum LUMC to linear peptides / Binding of Control serum Blood-bank to linear peptides / Binding of Control serum LUMC to looped peptides / Binding of Control Serum Blood-Bank to Looped peptides / Binding of Control serum LUMC to linear peptides of the protein M of SARS-CoV Urbani / Binding of Control serum Blood-bank to linear peptides of the protein M of SARS-CoV Urbani / Binding of Control serum LUMC to looped peptides of the protein M of SARS-CoV Urbani / Binding of Control Serum Blood-Bank to Looped peptides of the protein M of SARS-CoV Urbani: unit not given here
# [4] = system: antibodies in sera from SARS patients (sera 1a, 1b, 2, 6, 37, 62, London, SARS-yellow, SARS-green); format: binding, human; parameters: Binding of serum 6 to linear peptides of protein X1 of SARS-CoV Urbani / Binding of serum 37 to linear peptides of protein X1 of SARS-CoV Urbani / Binding of serum 6 to looped/cyclic peptide (PEPSCAN-ELISA) / Binding of serum 37 to looped/cyclic peptide (PEPSCAN-ELISA) / Binding of serum 37 to looped/cyclic peptides of protein X1 of SARS-CoV Urbani / Binding of serum 6 to linear peptides of protein X2 / Binding of serum 37 to linear peptides of protein X2 / Binding of serum 37 to looped/cyclic peptides of protein X2 of SARS-CoV Urbani / Binding of serum 6 to linear peptides of protein M of SARS-CoV Urbani / Binding of serum 37 to linear peptides of protein M of SARS-CoV Urbani / Binding of serum 6 to looped/cyclic peptides of protein M of SARS-CoV Urbani / Binding of serum 37 to looped/cyclic peptides of protein M of SARS-CoV Urbani / Binding of serum 6 to linear peptides of protein X3 of SARS-CoV Urbani / Binding of serum 37 to linear peptides of protein X3 of SARS-CoV Urbani / Binding of serum 37 to looped/cyclic peptides of protein X3 of SARS-CoV Urbani / Binding of serum 6 to linear peptides of protein X4 of SARS-CoV Urbani / Binding of serum 37 to linear peptides of protein X4 of SARS-CoV Urbani / Binding of serum 37 to looped/cyclic peptides of protein X4 of SARS-CoV Urbani / Binding of serum 6 to linear peptides of protein X5 of SARS-CoV Urbani / Binding of serum 37 to linear peptides of protein X5 of SARS-CoV Urbani / Binding of serum 37 to looped/cyclic peptides of protein X5 of SARS-CoV Urbani / Binding of serum 6 to linear peptides of protein N of SARS-CoV Urbani / Binding of serum 37 to linear peptides of protein N of SARS-CoV Urbani / Binding of serum 6 to linear peptide (PEPSCAN-ELISA) / Binding of serum 1a to looped/cyclic peptides of protein N of SARS-CoV Urbani / Binding of serum 1b to looped/cyclic peptides of protein N of SARS-CoV Urbani / Binding of serum 2 to looped/cyclic peptides of protein N of SARS-CoV Urbani / Binding of serum 6 to looped/cyclic peptides of protein N of SARS-CoV Urbani / Binding of serum 37 to looped/cyclic peptides of protein N of SARS-CoV Urbani / Binding of serum 62 to looped/cyclic peptides of protein N of SARS-CoV Urbani / Binding of serum London to looped/cyclic peptides of protein N of SARS-CoV Urbani / Binding of serum SARS-green to looped/cyclic peptides of protein N of SARS-CoV Urbani: unit not given here
Sequence,Binding of a rabbit serum to linear peptides of protein N of SARS-CoV Urbani (Rabbit serum linear peptides) [1],Binding of a rabbit serum to looped/cyclic peptides of protein N of SARS-CoV Urbani (Rabbit serum looped peptides) [1],Binding of antibody 03-018 to linear peptides of the N protein of SARS-CoV Urbani [2],Binding of antibody 03-018 to looped/cyclic peptides of the N protein of SARS-CoV Urbani [2],Binding of serum 1a to linear peptides of protein N of SARS-CoV Urbani [4],Binding of serum 1a to looped/cyclic peptides of protein N of SARS-CoV Urbani [4],Binding of serum 1b to linear peptides of protein N of SARS-CoV Urbani [4],Binding of serum 1b to looped/cyclic peptides of protein N of SARS-CoV Urbani [4],Binding of serum 2 to linear peptides of protein N of SARS-CoV Urbani [4],Binding of serum 2 to looped/cyclic peptides of protein N of SARS-CoV Urbani [4],Binding of serum 6 to linear peptides of protein N of SARS-CoV Urbani [4],Binding of serum 6 to looped/cyclic peptides of protein N of SARS-CoV Urbani [4],Binding of serum 37 to linear peptides of protein N of SARS-CoV Urbani [4],Binding of serum 37 to looped/cyclic peptides of protein N of SARS-CoV Urbani [4],Binding of serum 62 to linear peptides of protein N of SARS-CoV Urbani [4],Binding of serum 62 to looped/cyclic peptides of protein N of SARS-CoV Urbani [4],Binding of serum London to linear peptides of protein N of SARS-CoV Urbani [4],Binding of serum London to looped/cyclic peptides of protein N of SARS-CoV Urbani [4],Binding of serum SARS-green to looped/cyclic peptides of protein N of SARS-CoV Urbani [4],Binding of serum SARS-yellow to looped/cyclic peptides of protein N of SARS-CoV Urbani [4],further results
TRNPNNNAATVLQLP,0.1,0.5,0.1,0.2,0.3,0.4,0.1,0.3,0.3,0.7,0.2,0.3,0.6,0.6,0.7,0.5,0.5,0.5,0.8,0.5,Binding of Control Serum Blood-Bank to Looped peptides [3]: 0.8; Binding of Control serum Blood-bank to linear peptides [3]: 0.7; Binding of Control serum LUMC to linear peptides [3]: 0.8; Binding of Control serum LUMC to looped peptides [3]: 0.7; Binding of serum SARS-green to linear peptides of protein N of SARS-CoV Urbani [4]: 0.3; Binding of serum SARS-yellow to linear peptides of protein N of SARS-CoV Urbani [4]: 0.7
TRRVRGGDGKMKELS,0.2,0.3,0.1,0.2,0.3,0.2,0.2,0.1,0.3,0.2,0.3,0.2,0.7,0.4,0.8,0.3,0.5,0.3,0.0,0.2,Binding of Control Serum Blood-Bank to Looped peptides [3]: 0.5; Binding of Control serum Blood-bank to linear peptides [3]: 0.7; Binding of Control serum LUMC to linear peptides [3]: 0.8; Binding of Control serum LUMC to looped peptides [3]: 0.5; Binding of serum SARS-green to linear peptides of protein N of SARS-CoV Urbani [4]: 0.3; Binding of serum SARS-yellow to linear peptides of protein N of SARS-CoV Urbani [4]: 0.7
TVTKKSAAEASKKPR,0.2,0.5,0.1,0.2,,0.2,,0.1,,0.2,,0.1,,0.5,,0.3,,0.3,0.0,0.2,"Binding of Control Serum Blood-Bank to Looped peptides [3]: 0.4; Binding of Control serum Blood-bank to linear peptides [3]: 1.0; Binding of Control serum LUMC to linear peptides [3]: 1.0; Binding of Control serum LUMC to looped peptides [3]: 0.3; Recognition of the peptide by sera of SARS-CoV infected individuals, and form (linear, looped/cyclic) in which it is recognized [4]: recognized in linear form"
TVTLLPAADMDDFSR,0.1,0.3,0.1,0.2,0.2,0.3,0.1,0.2,0.1,0.2,0.2,0.0,0.7,0.4,0.5,0.1,0.5,0.2,0.5,0.2,Control Serum Blood-Bank Looped peptides [3]: 0.3; Control serum Blood-bank linear peptides [3]: 0.6; Control serum LUMC linear peptides [3]: 0.6; Control serum LUMC looped peptides [3]: 0.3; Binding of serum SARS-green to linear peptides of protein N of SARS-CoV Urbani [4]: 0.3; Binding of serum SARS-yellow to linear peptides of protein N of SARS-CoV Urbani [4]: 0.5
TWLTYHGAIKLDDKD,0.1,0.3,0.1,0.2,0.2,0.2,0.1,0.2,0.1,0.2,0.2,0.1,0.6,0.4,0.6,0.3,0.5,0.2,0.3,0.3,Control Serum Blood-Bank Looped peptides [3]: 0.4; Control serum Blood-bank linear peptides [3]: 0.6; Control serum LUMC linear peptides [3]: 0.6; Control serum LUMC looped peptides [3]: 0.4; Binding of serum SARS-green to linear peptides of protein N of SARS-CoV Urbani [4]: 0.3; Binding of serum SARS-yellow to linear peptides of protein N of SARS-CoV Urbani [4]: 0.6
